Source: US20220380338A1, “CYCLOALKYL 3-OXOPIPERAZINE CARBOXAMIDES AND CYCLOHETEROALKYL 3-OXOPIPERAZINE CARBOXAMIDES AS NAV1.8 INHIBITORS” (Merck Sharp & Dohme LLC, priority 2021, published 2022)

biological target: T1, human NaV1.8 (Homo sapiens, UniProt Q9Y5Y9); assay: Nav1.8 Qube® Assay (automated 384-well patch-clamp, inhibition of sodium current); format: cell-based; settings: human NaV1.8 channels stably expressed in HEK 293 cells, room temperature
T1 construct: expressed in transfected cells
T1 sequence (Q9Y5Y9 whole entry): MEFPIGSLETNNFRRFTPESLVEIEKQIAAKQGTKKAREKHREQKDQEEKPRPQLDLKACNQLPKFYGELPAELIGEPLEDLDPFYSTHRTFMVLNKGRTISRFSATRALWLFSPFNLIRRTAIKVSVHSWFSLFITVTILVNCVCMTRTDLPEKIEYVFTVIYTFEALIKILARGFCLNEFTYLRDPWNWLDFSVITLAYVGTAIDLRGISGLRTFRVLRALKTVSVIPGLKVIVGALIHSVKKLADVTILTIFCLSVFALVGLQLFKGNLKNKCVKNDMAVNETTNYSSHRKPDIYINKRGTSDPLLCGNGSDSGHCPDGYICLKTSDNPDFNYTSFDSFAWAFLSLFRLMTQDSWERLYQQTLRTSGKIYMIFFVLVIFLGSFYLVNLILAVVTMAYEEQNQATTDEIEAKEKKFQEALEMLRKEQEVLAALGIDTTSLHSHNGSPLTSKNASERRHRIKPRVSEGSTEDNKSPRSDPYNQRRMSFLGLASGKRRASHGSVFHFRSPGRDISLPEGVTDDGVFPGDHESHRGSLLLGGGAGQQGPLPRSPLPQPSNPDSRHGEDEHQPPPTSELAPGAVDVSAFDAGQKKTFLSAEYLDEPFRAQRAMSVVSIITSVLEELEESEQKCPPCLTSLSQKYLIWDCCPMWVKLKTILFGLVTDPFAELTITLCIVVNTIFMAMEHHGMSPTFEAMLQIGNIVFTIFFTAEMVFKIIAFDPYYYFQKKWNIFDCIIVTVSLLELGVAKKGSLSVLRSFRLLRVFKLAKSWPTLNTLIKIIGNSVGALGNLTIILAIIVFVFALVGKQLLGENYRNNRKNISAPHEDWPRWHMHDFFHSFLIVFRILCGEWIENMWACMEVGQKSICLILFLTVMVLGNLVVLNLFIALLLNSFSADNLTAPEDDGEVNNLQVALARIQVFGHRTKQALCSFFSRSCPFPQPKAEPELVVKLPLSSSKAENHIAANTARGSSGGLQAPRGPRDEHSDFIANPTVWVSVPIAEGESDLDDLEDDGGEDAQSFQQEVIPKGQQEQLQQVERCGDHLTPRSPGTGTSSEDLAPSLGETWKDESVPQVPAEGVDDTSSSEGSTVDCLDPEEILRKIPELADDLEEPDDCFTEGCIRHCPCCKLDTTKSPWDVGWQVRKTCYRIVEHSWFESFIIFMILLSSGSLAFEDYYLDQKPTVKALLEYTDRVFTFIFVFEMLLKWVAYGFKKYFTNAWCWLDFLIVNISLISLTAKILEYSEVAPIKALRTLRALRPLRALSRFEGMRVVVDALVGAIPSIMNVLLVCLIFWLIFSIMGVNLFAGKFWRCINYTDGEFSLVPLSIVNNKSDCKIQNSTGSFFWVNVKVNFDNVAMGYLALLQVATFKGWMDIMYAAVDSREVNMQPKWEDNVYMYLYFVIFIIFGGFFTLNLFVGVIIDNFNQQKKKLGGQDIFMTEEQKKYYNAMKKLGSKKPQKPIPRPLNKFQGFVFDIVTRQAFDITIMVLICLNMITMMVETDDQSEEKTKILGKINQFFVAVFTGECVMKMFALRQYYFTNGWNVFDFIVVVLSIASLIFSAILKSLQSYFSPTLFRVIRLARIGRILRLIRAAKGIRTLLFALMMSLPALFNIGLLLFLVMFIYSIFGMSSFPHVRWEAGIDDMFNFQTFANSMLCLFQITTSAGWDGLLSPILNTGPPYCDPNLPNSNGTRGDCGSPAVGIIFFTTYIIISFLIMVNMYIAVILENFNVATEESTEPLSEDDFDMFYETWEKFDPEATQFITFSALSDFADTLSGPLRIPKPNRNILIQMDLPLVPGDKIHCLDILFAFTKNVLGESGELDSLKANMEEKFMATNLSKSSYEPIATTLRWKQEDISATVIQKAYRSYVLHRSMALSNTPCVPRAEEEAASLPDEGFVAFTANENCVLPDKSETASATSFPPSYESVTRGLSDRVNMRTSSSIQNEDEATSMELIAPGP
Experimental: Compounds were tested on human NaV1.8 and NaV1.5 channels stably expressed in human embryo kidney (HEK) 293 cells. Sodium current measurements on Qube® were conducted as follows: automated 384-well patch-clamp assays on the Qube® platform (Sophion Biosciences) were used to measure the inhibition of sodium flow through human NaV1.8 and NaV1.5 channels. Whole-cell voltage-clamp recordings were performed in QChips® (Sophion Biosciences) at room temperature. NaV1.8 current measurements on Qube® were obtained as follows: NaV1.8 currents were elicited with a 10 second 1 Hertz (Hz) pulse train from a holding potential of −90 millivolts (mV), delivered to the cells once per minute in the control condition (DMSO only) and after compound addition. The 1 hertz pulse train stimulation consisted of ten test pulses to 10 millivolt (mV) for 20 milliseconds (ms), each of which was followed by a 980 millisecond repolarization to −67 millivolts. At the end of the 10 second pulse train stimulation, a 5 second hyperpolarization step to −100 millivolt (mV) was used to recover NaV1.8 from fast inactivation. The peak currents elicited by the 1st and 10th test pulses were used to determine IC50 values for resting inhibition and inactivated state inhibition. NaV1.5 current measurements on Qube® were obtained as follows: NaV1.5 currents were elicited with a 20 second 3 Hertz pulse train in the control condition (DMSO only) and after compound addition. The pulse train consisted of sixty 20 millisecond test pulses to 0 millivolt from a holding potential of −80 millivolt (mV). The average peak currents elicited by the last 3 test pulses were used to determine IC50 values for NaV1.5 inhibition.
The following buffers were used for the Qube® recordings: External buffer for NaV1.8 Qube® recording: 150 NaCl, 2 CaCl2, 5 KCl, 1 Mg Cl2, 10 HEPES, 12 Dextrose; External buffer for Qube® NaV1.5 recording: 120 N-Methyl-D-Glucamine, 40 NaCl, 1 KCl, 2.7 CaCl2, 5 HEPES, 0.5 MgCl2; and Internal buffer for Qube® recording: 120 CsF, 30 CsCl, 10 EGTA, 5 HEPES, 5 NaF, 2 MgCl2.
For all Qube® experiments offline analysis was used to determine percent inhibition as a function of drug concentration. IC50 values were determined by fitting to the Hill equation.

Compound | IC50
C[C@@H]1C(=O)NCCN1C(=O)NC(c1ccc(F)c(Cl)c1F)C1CCC(F)(F)CC1 (single isomer, unassigned) [Example 13A, (2R)-N-((R or S)-(3-chloro-2,4-difluoro-phenyl)(4,4-difluoro-cyclohexyl)methyl)-2-methyl-3-oxo-piperazine-1-carboxamide] | 13.4 nM
C[C@@H]1C(=O)NCCN1C(=O)NC(c1ccc(F)c(Cl)c1F)C1CCC(F)(F)CC1 (single isomer, unassigned) [Example 13B, (2R)-N-((S or R)-(3-chloro-2,4-difluoro-phenyl)(4,4-difluoro-cyclohexyl)methyl)-2-methyl-3-oxo-piperazine-1-carboxamide] | 726 nM
O=C1CN(C(=O)NC(c2ccc(F)c(Cl)c2)C2CCN(CC(F)(F)F)CC2)CCN1 (single isomer, unassigned) [Example 17A, N-((R or S)-(3-chloro-4-flurophenyl)(1-(2,2,2-trifluoroethyl)piperidin-4-yl)methyl)-3-oxopiperazine-1-carboxamide] | 1630 nM
O=C1CN(C(=O)NC(c2ccc(F)c(Cl)c2)C2CCN(CC(F)(F)F)CC2)CCN1 (single isomer, unassigned) [Example 17B, N-((S or R)-(3-chloro-4-fluorophenyl)(1-(2,2,2-trifluoroethyl)piperidin-4-yl)methyl)-3-oxopiperazine-1-carboxamide] | 136 nM
C[C@@H]1C(=O)NCCN1C(=O)NC(c1ccc(F)c(Cl)c1)C1CCC2(CC1)CC2(F)F (single isomer, unassigned) [Example 19A] | 5.75 nM
C[C@@H]1C(=O)NCCN1C(=O)NC(c1ccc(F)c(Cl)c1F)C1CC(C(F)(F)F)C1 (single isomer, unassigned) [Example 20A] | 1.37 nM
C[C@@H]1C(=O)NCCN1C(=O)NC(c1ccc(F)c(Cl)c1F)C1CC(C(F)(F)F)C1 (single isomer, unassigned) [Example 20C] | 9.02 nM
C[C@@H]1C(=O)NCCN1C(=O)NC(c1ccc(F)c(Cl)c1F)C1CC(C(F)(F)F)C1 (single isomer, unassigned) [Example 20D] | 116 nM
C[C@@H]1C(=O)NCCN1C(=O)NC(c1ccc(F)c(Cl)c1F)C1CC(C2CC2)C1 (single isomer, unassigned) [Example 21A, (2R)-N-((R or S)-(3-chloro-2,4-difluoro-phenyl)(trans or cis-3-cyclopropylcyclobutyl)methyl)-2-methyl-3-oxopiperazine-1-carboxamide] | 1.08 nM
C[C@@H]1C(=O)NCCN1C(=O)NC(c1ccc(F)c(Cl)c1F)C1CC(C2CC2)C1 (single isomer, unassigned) [Example 21B, (2R)-N-((R or S)-(3-chloro-2,4-difluoro-phenyl)(cis or trans-3-cyclopropylcyclobutyl)methyl)-2-methyl-3-oxopiperazine-1-carboxamide] | 2.87 nM
C[C@@H]1C(=O)NCCN1C(=O)NC(c1ccc(F)c(Cl)c1F)C1CC(C2CC2)C1 (single isomer, unassigned) [Example 21C, (2R)-N-((S or R)-(3-chloro-2,4-difluoro-phenyl)(trans or cis-3-cyclopropyl-cyclobutyl)-methyl)-2-methyl-3-oxopiperazine-1-carboxamide] | 59.7 nM
C[C@@H]1C(=O)NCCN1C(=O)NC(c1ccc(F)c(Cl)c1F)C1CC(C2CC2)C1 (single isomer, unassigned) [Example 21D, (2R)-N-((S or R)-(3-chloro-2,4-difluoro-phenyl)(cis or trans-3-cyclopropyl-cyclobutyl)-methyl)-2-methyl-3-oxopiperazine-1-carboxamide] | 128 nM
C[C@@H]1C(=O)NCCN1C(=O)NC(c1ccc(F)c(Cl)c1F)C1CC2(C1)CC2(F)F (single isomer, unassigned) [Example 22A, (2R)-N-((R or S)-(3-chloro-2,4-difluoro-phenyl)(trans or cis-1,1-difluoro-spiro[2,3]-hexan-5-yl)methyl)-2-methyl-3-oxopiperazine-1-carboxamide] | 2.9 nM
C[C@@H]1C(=O)NCCN1C(=O)NC(c1ccc(F)c(Cl)c1F)C1CC2(C1)CC2(F)F (single isomer, unassigned) [Example 22B, (2R)-N-((R or S)-(3-chloro-2,4-difluoro-phenyl)(cis or trans-1,1-difluoro-spiro[2,3]-hexan-5-yl)methyl)-2-methyl-3-oxopiperazine-1-carboxamide] | 5.89 nM
C[C@@H]1C(=O)NCCN1C(=O)NC(c1ccc(F)c(Cl)c1F)C1CC2(C1)CC2(F)F (single isomer, unassigned) [Example 22C, (2R)-N-((S or R)-(3-chloro-2,4-difluoro-phenyl)(trans or cis-1,1-difluoro-spiro[2.3]-hexan-5-yl)methyl)-2-methyl-3-oxopiperazine-1-carboxamide] | 84.5 nM
C[C@@H]1C(=O)NCCN1C(=O)NC(c1ccc(F)c(Cl)c1F)C1CC2(C1)CC2(F)F (single isomer, unassigned) [Example 22D, (2R)-N-((So or R)-(3-chloro-2,4-difluoro-phenyl)(cis or trans-1,1-difluoro-spiro[2.3]-hexan-5-yl)methyl)-2-methyl-3-oxopiperazine-1-carboxamide] | 85.2 nM
C[C@@H]1C(=O)NCCN1C(=O)NC(c1ccc(F)c(Cl)c1F)C1CC2(C1)CC(F)(F)C2 (single isomer, unassigned) [Example 23, (2R)-N-((R or S)-(3-chloro-2,4-difluoro-phenyl)(6,6-difluoro-spiro[3.3]heptan-2-yl)methyl)-2-methyl-3-oxopiperazine-1-carboxamide] | 1.16 nM

More lines, now with the values ahead:

IC50 | Compound
18.5 nM | C[C@@H]1C(=O)NCCN1C(=O)NC(c1ccc(F)c(Cl)c1)C1CCC(F)(F)CC1 (single isomer, unassigned) [Example 14A, (2R)-N-((R or S)-(3-chloro-4-fluoro-phenyl)(4,4-difluoro-cyclohexyl)methyl)-2-methyl-3-oxo-piperazine-1-carboxamide]
359 nM | C[C@@H]1C(=O)NCCN1C(=O)NC(c1ccc(F)c(Cl)c1)C1CCC(F)(F)CC1 (single isomer, unassigned) [Example 14B, (2R)-N-((S or R)-(3-chloro-4-fluoro-phenyl)(4,4-difluoro-cyclohexyl)methyl)-2-methyl-3-oxo-piperazine-1-carboxamide]
28.3 nM | C[C@@H]1C(=O)NCCN1C(=O)NC(c1ccc(F)c(Cl)c1)C1CCN(CC(F)(F)F)CC1 (single isomer, unassigned) [Example 15A]
553 nM | C[C@@H]1C(=O)NCCN1C(=O)NC(c1ccc(F)c(Cl)c1)C1CCN(CC(F)(F)F)CC1 (single isomer, unassigned) [Example 15B]
366 nM | C[C@@H]1C(=O)NCCN1C(=O)NC(c1ccc(Cl)cc1)C1CCN(CC(F)(F)F)CC1 (single isomer, unassigned) [Example 16A, (2R)-N-((R or S)-(4-chlorophenyl)(1-(2,2,2-trifluoroethyl)piperidin-4-yl)methyl)-2-methyl-3-oxopiperazine-1-carboxamide]
936 nM | C[C@@H]1C(=O)NCCN1C(=O)NC(c1ccc(Cl)cc1)C1CCN(CC(F)(F)F)CC1 (single isomer, unassigned) [Example 16B, (2R)-N-((S or R)-(4-chlorophenyl)(1-(2,2,2-trifluoroethyl)piperidin-4-yl)methyl)-2-methyl-3-oxopiperazine-1-carboxamide]
4.1 nM | CC(N1CCC(C(NC(=O)N2CCNC(=O)[C@H]2C)c2ccc(F)c(Cl)c2)CC1)C(F)(F)F (single isomer, unassigned) [Example 18A]
6.87 nM | CC(N1CCC(C(NC(=O)N2CCNC(=O)[C@H]2C)c2ccc(F)c(Cl)c2)CC1)C(F)(F)F (single isomer, unassigned) [Example 18B]
91.6 nM | CC(N1CCC(C(NC(=O)N2CCNC(=O)[C@H]2C)c2ccc(F)c(Cl)c2)CC1)C(F)(F)F (single isomer, unassigned) [Example 18C]
83.5 nM | CC(N1CCC(C(NC(=O)N2CCNC(=O)[C@H]2C)c2ccc(F)c(Cl)c2)CC1)C(F)(F)F (single isomer, unassigned) [Example 18D]
3.23 nM | C[C@@H]1C(=O)NCCN1C(=O)NC(c1ccc(F)c(Cl)c1)C1CCC2(CC1)CC2(F)F (single isomer, unassigned) [Example 19B]
15.7 nM | C[C@@H]1C(=O)NCCN1C(=O)NC(c1ccc(F)c(Cl)c1)C1CCC2(CC1)CC2(F)F (single isomer, unassigned) [Example 19C]
10 nM | C[C@@H]1C(=O)NCCN1C(=O)NC(c1ccc(F)c(Cl)c1)C1CCC2(CC1)CC2(F)F (single isomer, unassigned) [Example 19D]
